≈ marks a conversion by molar mass, not a printed value.

Data set [1] concerns HCT-116. The data set is described as follows: Cytotoxicity test (MTT, 72 h). To be noted: Homo sapiens, HCT-116, 72 h, read-out: 50% Inhibiting Concentration value (IC50).
Protocol: (§1) In order to investigate the antitumor activities of the compounds, a variety of tumor cell lines for test are selected. Cells at logarithmic growth period are inoculated in a 96-well plate overnight, then drugs with a certain gradient concentrations are added, and incubation is carried out in a cell culture chamber (5% CO2, 37° C.) for 72 h.
The test system of data set [2] is SW-480. The data set is described as follows: Cytotoxicity test (MTT, 72 h). To be noted: Homo sapiens, SW480, 72 h, read-out: 50% Inhibiting Concentration value (IC50).
Protocol: (§2) Cells at logarithmic growth period are inoculated in a 96-well plate overnight, then drugs with a certain gradient concentrations are added, and incubation is carried out in a cell culture chamber (5% CO2, 37° C.) for 72 h.
Data set [3] concerns MDA-MB-231. The data set is described as follows: Cytotoxicity test (MTT, 72 h). To be noted: Homo sapiens, MDA-MB-231, 72 h, read-out: 50% Inhibiting Concentration value (IC50).
Protocol: as §1
The test system of data set [4] is ECA-109. The data set is described as follows: Cytotoxicity test (MTT, 72 h). To be noted: Homo sapiens, ECa-109, 72 h, read-out: 50% Inhibiting Concentration value (IC50).
Protocol: as §1
Data set [5] relates to PANC-1. The data set is described as follows: Cytotoxicity test (MTT, 72 h). To be noted: Homo sapiens, PANC-1, 72 h, read-out: 50% Inhibiting Concentration value (IC50).
Protocol: as §2
The test system of data set [6] is Hela. The data set is described as follows: Cytotoxicity test (MTT, 72 h). Conditions: Homo sapiens, read-out: 50% Inhibiting Concentration value (IC50).
Protocol: as §1
For data set [7], the system named is BGC-823. The data set is described as follows: Cytotoxicity test (MTT, 72 h). To be noted: Homo sapiens, BGC-823, 72 h, read-out: 50% Inhibiting Concentration value (IC50).
Protocol: as §1
Data set [8] relates to TPC-1. The data set is described as follows: Cytotoxicity test (MTT, 72 h). To be noted: Homo sapiens, TPC1, 72 h, read-out: 50% Inhibiting Concentration value (IC50).
Protocol: as §2
Data set [9] deals with HT-29. The data set is described as follows: Cytotoxicity test (MTT, 72 h). To be noted: Homo sapiens, HT-29, 72 h, read-out: 50% Inhibiting Concentration value (IC50).
Protocol: as §2
Data set [10] is described as follows: Solubility test, equilibrium method, UV-visible spectrophotometry. To be noted: thermodynamic from solid. It is filed as physicochemical. The protocol:
The solubility test is carried out by equilibrium method. […] An appropriate amount of the compound is weighed and dissolved in 1 mL of methanol solution to prepare a control solution with a certain concentration (C0). The concentration of test solution is calculated according to the following formula: Cx=(Ax/A0)C0, wherein Cx is concentration of test solution, Ax is absorbance of test solution, C0 is concentration of control solution, and A0 is absorbance of control solution.

The subject of data set [11] is SKOV-3. The data set is described as follows: Cytotoxicity test (MTT, 72 h). Conditions: Homo sapiens, SK-OV-3, 72 h, read-out: 50% Inhibiting Concentration value (IC50).
Protocol: as §2
Data set [12] has as its system K562. The data set is described as follows: Cytotoxicity test (MTT, 72 h). To be noted: Homo sapiens, K562, 72 h, read-out: 50% Inhibiting Concentration value (IC50).
Protocol: as §1
Data set [13] has as its system H1975. The data set is described as follows: Cytotoxicity test (MTT, 72 h). To be noted: Homo sapiens, NCI-H1975, 72 h, read-out: 50% Inhibiting Concentration value (IC50).
Protocol: as §1
Data set [14] deals with A549. The data set is described as follows: Cytotoxicity test (MTT, 72 h). To be noted: Homo sapiens, A549, 72 h, read-out: 50% Inhibiting Concentration value (IC50).
Protocol: as §1
Data set [15] concerns 143B. The data set is described as follows: Cytotoxicity test (MTT, 72 h). To be noted: Homo sapiens, read-out: 50% Inhibiting Concentration value (IC50).
Protocol: as §1
Data set [16] deals with HepG2. The data set is described as follows: Cytotoxicity test (MTT, 72 h). Conditions: Homo sapiens, HepG2, 72 h, read-out: 50% Inhibiting Concentration value (IC50).
Protocol: as §1
The subject of data set [17] is PC3. The data set is described as follows: Cytotoxicity test (MTT, 72 h). Conditions: Homo sapiens, PC-3, 72 h, read-out: 50% Inhibiting Concentration value (IC50).
Protocol: as §1
[18] abbreviates: aqueous with cosolvent or surfactant or cyclodextrin.

Consider `CCc1c2c(nc3ccc(OC(=O)OCCOCc4cn([C@H]5O[C@@H](CO)[C@H](O)[C@@H](O)[C@@H]5O)nn4)cc13)-c1cc3c(c(=O)n1C2)COC(=O)[C@]3(O)CC` [Compound 37], for which the IC50 in data set [1] came to 2.34 µM; in data set [2], 0.014 µM; in data set [3], 1.82 µM; in [4], 1.62 µM; in [5] it was 13.7 µM; in [6] it was 12.7 µM. Moreover, the IC50 in [7] turned out to be 1.25 µM; in [8], 18.3 µM; in data set [9] it was 1.94 µM; in data set [11], 2.63 µM; in [12], 1.95 µM; in data set [13], 21.1 µM. Also, the IC50 in data set [14] is 13.1 µM; in data set [15], 17.6 µM; in data set [16], 2.19 µM; in data set [17], 10.9 µM. In addition, the solubility (usually the dissolved amount per volume that the medium holds) came to 360 µg/mL (≈ 497 µM) in data set [10] (setting [18]); 54.4 µg/mL (≈ 75.2 µM) in data set [10] (pH 7.4, aqueous buffer); 725 µg/mL (≈ 1000 µM) in [10] (saline or isotonic); 159 µg/mL (≈ 220 µM) in [10] (water).

Regarding `CCc1c2c(nc3ccc(OC(=O)OCCOCCOCCOCCOCc4cn([C@H]5O[C@@H](CO)[C@H](O)[C@@H](O)[C@@H]5O)nn4)cc13)-c1cc3c(c(=O)n1C2)COC(=O)[C@]3(O)CC` [Compound 42], the IC50 in data set [1] was determined as 3.01 µM; in [2], 0.167 µM; in data set [3], 0.145 µM; in data set [4], 11.3 µM; in data set [5], 6.87 µM; in data set [6], 6.87 µM. Besides, the IC50 turned out to be 0.139 µM in [7]; 15.3 µM in [8]; 13.5 µM in data set [9]; 0.209 µM in data set [11]; 2.5 µM in [12]; 12.8 µM in [13]. Also, the IC50 was 5.73 µM in data set [14], 10.6 µM in data set [15], 0.174 µM in data set [16] and 4.77 µM in data set [17]. Also, the solubility in data set [10] (setting [18]) was 120 µg/mL (≈ 140 µM); in data set [10] (pH 7.4, aqueous buffer), 85.2 µg/mL (≈ 99.6 µM); in data set [10] (saline or isotonic), 5870 µg/mL (≈ 6860 µM); in data set [10] (water) it was 162 µg/mL (≈ 189 µM).

As for `CCc1c2c(nc3ccc(OC(=O)OCCOCCOCc4cn([C@H]5O[C@@H](CO)[C@H](O)[C@@H](O)[C@@H]5O)nn4)cc13)-c1cc3c(c(=O)n1C2)COC(=O)[C@]3(O)CC` [Compound 47], the IC50 in data set [1] is 0.273 µM; in data set [2], 0.274 µM; in data set [3], 2.28 µM; in data set [4], 0.578 µM; in data set [5] it was 3.54 µM; in [6], 3.54 µM. The IC50 turned out to be 0.228 µM in data set [7]; 12.9 µM in data set [8]; 0.694 µM in data set [9]; 3.29 µM in [11]; 0.228 µM in data set [12]; 10.8 µM in data set [13]. Besides, the IC50 in data set [14] turned out to be 2.95 µM; in [15], 8.96 µM; in data set [16], 2.74 µM; in data set [17], 2.46 µM. The solubility in data set [10] (setting [18]) is 650 µg/mL (≈ 846 µM); in data set [10] (pH 7.4, aqueous buffer), 60.8 µg/mL (≈ 79.2 µM); in data set [10] (saline or isotonic), 511 µg/mL (≈ 665 µM); in data set [10] (water), 109 µg/mL (≈ 142 µM).

Regarding `CCc1c2c(nc3ccc(OC(=O)OCCOCCOCCOCc4cn([C@H]5O[C@@H](CO)[C@H](O)[C@@H](O)[C@@H]5O)nn4)cc13)-c1cc3c(c(=O)n1C2)COC(=O)[C@]3(O)CC` [Compound 52], the IC50 came to 0.527 µM in data set [1]; 0.167 µM in data set [2]; 6.85 µM in data set [3]; 0.716 µM in data set [4]; 13.3 µM in data set [5]; 13.3 µM in [6]. Further, the IC50 in data set [7] was 0.139 µM; in data set [8] it was 26.1 µM; in data set [9], 0.859 µM; in data set [11], 9.86 µM; in data set [12], 0.439 µM; in data set [13] it was 21.8 µM. Further, the IC50 in data set [14] is 11.1 µM; in data set [15], 18.1 µM; in data set [16], 8.22 µM; in data set [17] it was 9.26 µM. The solubility in data set [10] (setting [18]) came to 320 µg/mL (≈ 394 µM); in data set [10] (pH 7.4, aqueous buffer) it was 85.2 µg/mL (≈ 105 µM); in [10] (saline or isotonic) it was 446 µg/mL (≈ 549 µM); in [10] (water), 3050 µg/mL (≈ 3750 µM).

As for `CCc1c2c(nc3ccc(OC(=O)OCCOCc4cn(CCO[C@H]5O[C@@H](CO)[C@H](O)[C@@H](O)[C@@H]5O)nn4)cc13)-c1cc3c(c(=O)n1C2)COC(=O)[C@]3(O)CC` [Compound 56], the IC50 in data set [1] is 0.137 µM; in data set [2], 0.112 µM; in data set [3], 8.53 µM; in [4], 7.83 µM; in data set [5], 5.63 µM; in data set [6], 5.63 µM. Moreover, the IC50 in [7] was determined as 0.093 µM; in data set [8], 9.9 µM; in data set [9], 9.39 µM; in data set [11], 12.3 µM; in [12], 0.114 µM; in [13] it was 8.25 µM. Moreover, the IC50 came to 4.7 µM in data set [14], 6.88 µM in data set [15], 10.2 µM in data set [16] and 3.91 µM in [17]. Moreover, the solubility in [10] (setting [18]) amounted to 2180 µg/mL (≈ 2830 µM); in [10] (pH 7.4, aqueous buffer), 85.2 µg/mL (≈ 111 µM); in [10] (saline or isotonic) it was 1110 µg/mL (≈ 1440 µM); in [10] (water), 636 µg/mL (≈ 828 µM).

As to `CCc1c2c(nc3ccc(OC(=O)OCCOCCOCc4cn(CCO[C@H]5O[C@@H](CO)[C@H](O)[C@@H](O)[C@@H]5O)nn4)cc13)-c1cc3c(c(=O)n1C2)COC(=O)[C@]3(O)CC` [Compound 57], the IC50 in data set [1] was determined as 1.39 µM; in data set [2] it was 0.164 µM; in [3], 4.29 µM; in data set [4] it was 1.4 µM; in data set [5] it was 22.1 µM; in data set [6], 15.1 µM. The IC50 in data set [7] came out at 0.137 µM; in data set [8] it was 14.6 µM; in data set [9], 1.68 µM; in [11], 6.17 µM; in data set [12], 1.16 µM; in data set [13], 12.1 µM. Further, the IC50 in [14] worked out at 20.9 µM; in data set [15] it was 10.1 µM; in data set [16], 5.15 µM; in data set [17], 17.4 µM. Further, the solubility is 6460 µg/mL (≈ 7950 µM) in [10] (setting [18]); 361 µg/mL (≈ 444 µM) in data set [10] (pH 7.4, aqueous buffer); 4290 µg/mL (≈ 5290 µM) in [10] (saline or isotonic); 178 µg/mL (≈ 219 µM) in [10] (water).

Consider `CCc1c2c(nc3ccc(OC(=O)OCCOCCOCCOCCOCc4cn(CCO[C@H]5O[C@@H](CO)[C@H](O)[C@@H](O)[C@@H]5O)nn4)cc13)-c1cc3c(c(=O)n1C2)COC(=O)[C@]3(O)CC` [Compound 59], for which the IC50 in data set [1] turned out to be 1.67 µM; in [2], 1.21 µM; in [3] it was 2.28 µM; in data set [4], 0.939 µM; in [5] it was 9.64 µM; in data set [6], 9.64 µM. The IC50 in [7] came out at 1.01 µM; in data set [8] it was 12.6 µM; in data set [9], 1.13 µM; in [11] it was 3.28 µM; in data set [12], 1.39 µM; in [13], 10.5 µM. For the same compound, the IC50 in [14] stood at 8.03 µM; in data set [15], 8.77 µM; in data set [16], 2.73 µM; in [17] it was 6.69 µM. Also, the solubility in [10] (setting [18]) was determined as 1200 µg/mL (≈ 1340 µM); in data set [10] (pH 7.4, aqueous buffer), 984 µg/mL (≈ 1090 µM); in data set [10] (saline or isotonic), 854 µg/mL (≈ 949 µM); in [10] (water), 1480 µg/mL (≈ 1650 µM).

For the origin of these results see patent US20210246157A1, “CAMPTOTHECIN DERIVATIVES AND PREPARATION METHODS AND APPLICATIONS THEREOF” (priority 2018, published 2021).
